Test results: patent publication US20260008783A1, “MODULATORS OF FSHR AND USES THEREOF” (Celmatix Inc., priority 2022, published 2026)

Biological target: T1, Follicle Stimulating Hormone Receptor (FSHR) (Homo sapiens, UniProt P23945)
T1 construct: HA (N); expressed in transfected cells; host or cells: CHO-K1, transient transfection, pHM6 vector (CMV promoter)
T1 sequence (P23945 18-695): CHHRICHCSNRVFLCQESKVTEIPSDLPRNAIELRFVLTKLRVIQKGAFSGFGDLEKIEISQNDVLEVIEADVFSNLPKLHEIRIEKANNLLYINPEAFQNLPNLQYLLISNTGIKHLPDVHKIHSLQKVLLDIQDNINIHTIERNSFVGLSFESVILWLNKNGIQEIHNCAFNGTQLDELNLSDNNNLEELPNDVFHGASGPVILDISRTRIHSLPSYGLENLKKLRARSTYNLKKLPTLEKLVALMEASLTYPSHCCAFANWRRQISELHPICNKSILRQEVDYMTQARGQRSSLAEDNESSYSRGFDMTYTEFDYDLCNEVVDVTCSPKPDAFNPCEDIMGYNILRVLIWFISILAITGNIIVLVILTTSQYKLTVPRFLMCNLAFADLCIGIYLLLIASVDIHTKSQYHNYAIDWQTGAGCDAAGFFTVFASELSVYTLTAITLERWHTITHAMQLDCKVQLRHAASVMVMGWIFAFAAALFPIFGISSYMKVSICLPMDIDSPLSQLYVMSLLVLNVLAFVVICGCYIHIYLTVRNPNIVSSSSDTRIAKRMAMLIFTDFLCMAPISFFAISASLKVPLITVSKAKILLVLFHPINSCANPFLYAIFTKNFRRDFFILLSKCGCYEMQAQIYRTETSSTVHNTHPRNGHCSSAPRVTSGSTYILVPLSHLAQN
Assay: HTRF cAMP agonist assay, FSHR, transiently transfected CHO-K1 cells
Assay type: cell-based
Details: CHO-K1 cells transiently expressing human FSHR, read-out: IC50 FSHR LANCE CAMP
Source text: Example 17. HTRF cAMP Agonist Assay Protocol (for FSHR, TSHR, LHCGR)
Mammalian expression vectors designed to express either Follicle Stimulating Hormone Receptor (FSHR), Thyroid Stimulating Hormone Receptor (TSHR), or Luteinizing Hormone/Choriogonadotropin Receptor (LHCGR), were generated with an HA-tag on the N-terminus. All constructs were expressed under a human cytomegalovirus (CMV) immediate early enhancer and promoter using the pHM6 expression vector. The protein coding region was confirmed by sequence analysis to be in-frame and of the expected sequence, matching the following accession numbers: FSHR NM_000145, TSHR NM_000369, and LHCGR NM_000233.
HTRF cAMP assays were performed using Chinese Hamster Ovary (CHO-K1) cell lines transiently expressing human FSH, TSH, and LHCG receptors. 48 hours before the assay, cells were washed with PBS and then dissociated from tissue culture flasks with 0.25% trypsin. Dissociated cells were quenched in full media (F-12K Medium Corning REF #10-025-CV, 10% Avantor Seradigm FB Essence Cat #10803-034, 1% Penicillin/Streptomycin Cytiva HyClone Cat #SV30010) and then collected by centrifugation at 290×g for 5 min. Cells were resuspended in full media and dispensed into 150 mm cell culture dishes (Nest Scientific Cat #715001), at 2.3×10^6 cells/flask. 7 hours later, cells were transfected using Lipofectamine transfection reagent (Invitrogen Cat #18324020). Briefly, 60 μL of lipofectamine was dispensed into 2 mL of Opti-MEM (Gibco Cat #31985070) and incubated for 5 minutes at room temperature. Then, the mixture was added onto […] of DNA and incubated for another 20 minutes at room temperature. Cells were washed with warm (37° C.) PBS. 17.5 mL of Opti-MEM was dispensed onto the cells, followed by addition of the Opti-MEM/lipofectamine/DNA mixture. Cells were incubated overnight in a 37° C., 5% CO2 cell incubator. 17-19 hours later, Opti-MEM was aspirated off the cells and replaced with full media. Cells were incubated for another 24 hours in a 37° C., 5% CO2 cell incubator.
On the day of the assay, cells were washed with PBS and then dissociated from tissue culture flasks with 0.25% trypsin. Dissociated cells were quenched in full media and then collected by centrifugation at 290×g for 5 min. Cells were resuspended in PBS^+/+ (Corning REF #20-030-CV) to a concentration of 2×10^5 cells/mL. 10 μL/well of cells (2,000 cells/well) were dispensed into 384-well Corning plates (REF #3825), in triplicate. Cells were incubated at room temperature for 2 hours.
Example FSHR Modulator compounds were diluted in assay buffer (PBS^+/+, 0.05% BSA Sigma-Aldrich A3059, 500 μM IBMX Sigma-Aldrich 15879) to 3.5× the final assay concentration. 4 μL of test agonist was added to the cells and incubated for 1 hour at room temperature. 10 μL of cAMP detection reagents (LANCE Ultra cAMP Detection Kit PerkinElmer TRF0264) were dispensed onto the cells and plates were incubated for 2 hours at room temperature (cAMP detection reagents were made according to the PerkinElmer kit protocol). Plates were read on an Envision plate reader following PerkinElmer guidelines.
Raw data for all assays was transmitted directly from plate readers into a database for processing. All assay plates contained both positive and negative control wells to allow for data normalization and scaling. In agonist assays, negative control wells contained assay buffer and positive control wells contained […] positive control (10 nM Follicle Stimulating Hormone Sigma-Aldrich F4021, 50 nM Thyroid Stimulating Hormone Sigma-Aldrich 869006, 50 nM Luteinizing Hormone MyBioSource MBS5308806, for their respective receptors). All control wells contained DMSO at a final assay concentration that matched the test compound wells. […]
Percent control data were analyzed by non-linear regression with a sigmoidal dose response algorithm in the database to yield potency and efficacy data.

| IC50 | Compound |
| --- | --- |
| 40.1 nM | COc1cc2c(cc1-c1cncc(C(N)=O)c1)-c1c(c(C(=O)N3CCOCC3(C)C)nn1-c1cccnc1)CC2 [Compound 10-02] |
| 14.3 nM | COc1cc2c(cc1-c1cncc(C(N)=O)c1)-c1c(c(C(=O)N3CCOCC3(C)C)nn1CC(C)C)CC2 [Compound 9-14] |
| 2480 nM | COc1ccc2c(c1)CCc1c(C(=O)N3CCOCC3(C)C)nn(-c3cc(Cl)cc(Cl)c3)c1-2 [Compound 9-08A] |
| 197 nM | COc1cc2c(cc1-c1cncc(C(N)=O)c1)-c1c(c(C(=O)N(C)C(C)(C)C)nn1-c1cc(Cl)cc(Cl)c1)C2 [Compound 5-02, N-tert-butyl-7-(5-carbamoyl-3-pyridyl)-1-(3,5-dichlorophenyl)-6-methoxy-N-methyl-4H-indeno[1,2-c]pyrazole-3-carboxamide] |
| 163 nM | COc1cc2c(cc1-c1ccn(C)n1)-c1c(c(C(=O)N3CCOCC3(C)C)nn1-c1cc(Cl)cc(Cl)c1)CC2 [Compound 6-03, [1-(3,5-dichlorophenyl)-7-methoxy-8-(1-methylpyrazol-3-yl)-4,5-dihydrobenzo[g]indazol-3-yl]-(3,3-dimethylmorpholin-4-yl)methanone] |
| 78.4 nM | COc1cc2ccc3c(C(=O)N(C)C(C)(C)C)nn(-c4cc(Cl)cc(Cl)c4)c3c2cc1-c1ccn(C)n1 [Compound 6-08, N-tert-butyl-1-(3,5-dichlorophenyl)-7-methoxy-N-methyl-8-(1-methylpyrazol-3-yl)benzo[g]indazole-3-carboxamide] |
| 0.825 nM | COc1cc2c(cc1-c1cncc(C(N)=O)c1)-c1c(c(C(=O)N3COCC3(C)C)nn1-c1cc(Cl)cc(Cl)c1)CC2 [Compound 8-32] |
| 20.8 nM | COc1cc2c(cc1-c1cncc(C(N)=O)c1)-c1c(c(C(=O)N3CCNCC3C)nn1-c1cc(Cl)cc(Cl)c1)CC2 (stereo not drawn) [Compound 8-01, 5-[1-(3,5-dichlorophenyl)-7-methoxy-3-(2-methylpiperazine-1-carbonyl)-4,5-dihydrobenzo[g]indazol-8-yl]pyridine-3-carboxamide] |
| 325 nM | COc1cc2c(cc1-c1ccn(C)n1)-c1c(c(C(=O)N3CCOCC3(C)C)nn1-c1cc(Cl)cc(Cl)c1)SC2 [Compound 3-03, (1-(3,5-dichlorophenyl)-7-methoxy-8-(1-methyl-1H-pyrazol-3-yl)-1,5-dihydroisothiochromeno[4,3-c]pyrazol-3-yl)(3,3-dimethylmorpholino)methanone] |
| 3.43 nM | COc1cc2c(cc1-c1cncc(C(N)=O)c1)-c1c(c(C(=O)N3[C@@H](C)COC[C@@H]3C)nn1-c1cc(Cl)cc(Cl)c1)CC2 [Compound 8-50] |
| 8.2 nM | COc1cc2c(cc1-c1cncc(C(N)=O)c1)-c1c(c(C(=O)N(C)C(C)(C)C)nn1-c1ccsc1)C2 [Compound 5-04, N-tert-butyl-7-(5-carbamoyl-3-pyridyl)-6-methoxy-N-methyl-1-(3-thienyl)-4H-indeno[1,2-c]pyrazole-3-carboxamide] |
| 244 nM | COc1cc2c(cc1-c1cncc(C(N)=O)c1)-c1c(c(C(=O)N3CCC(S(C)(=O)=O)CC3C)nn1-c1cc(Cl)cc(Cl)c1)CC2 (stereo not drawn) [Compound 8-13, 5-[1-(3,5-dichlorophenyl)-7-methoxy-3-(2-methyl-4-methylsulfonyl-piperidine-1-carbonyl)-4,5-dihydrobenzo[g]indazol-8-yl]pyridine-3-carboxamide] |
| 30 nM | COc1cc2c(cc1-c1cncc(C(N)=O)c1)-c1c(c(C(=O)N3CCCC34COC4)nn1-c1cc(Cl)cc(Cl)c1)CC2 [Compound 8-27] |
| 66.8 nM | COc1cc2c(cc1-c1cncc(C(N)=O)c1)-c1c(c(C(=O)N3CCNC(=O)C3(C)C)nn1-c1cc(Cl)cc(Cl)c1)OC2 [Compound 12-18] |
| 0.615 nM | COc1cc2c(cc1-c1cncc(C(N)=O)c1)-c1c(c(C(=O)N3CCOCC3(C)C)nn1-c1cc(F)cc(F)c1)CC2 [Compound 9-18] |
| 115 nM | COc1cc2c(cc1-c1cncc(C(N)=O)c1)-c1c(c(C(=O)N3CCCN(C)CC3)nn1-c1cc(Cl)cc(Cl)c1)CC2 [Compound 8-07, 5-[1-(3,5-dichlorophenyl)-7-methoxy-3-(4-methyl-1,4-diazepane-1-carbonyl)-4,5-dihydrobenzo[g]indazol-8-yl]pyridine-3-carboxamide] |
| 75.8 nM | COc1cc2c(cc1-c1cncc(C(N)=O)c1)-c1c(c(C(=O)N3CCNC(=O)C3(C)C)nn1-c1ccccn1)CC2 [Compound 15-01, 5-[3-(2,2-dimethyl-3-oxo-piperazine-1-carbonyl)-7-methoxy-1-(2-pyridyl)-4,5-dihydrobenzo[g]indazol-8-yl]pyridine-3-carboxamide] |
| 20.9 nM | COc1cc2c(cc1-c1cncc(C(N)=O)c1)-c1c(c(C(=O)N3CCNC(=O)C3(C)C)nn1-c1cc(Cl)cc(Cl)c1)SC2 [Compound 12-16] |
| 16.3 nM | COc1cc2c(cc1-c1cncc(C(N)=O)c1)-c1c(c(C(=O)N3CCNC(=O)C3(C)C)nn1-c1cc(Cl)cc(Cl)c1)CC2 [Compound 8-26] |
| 6090 nM | C[C@H]1CNC(=O)[C@H](C)N1C(=O)c1nn(-c2ccccn2)c2c1CCc1ccc(-c3cccnc3)cc1-2 [Compound 8-79] |
| 31.9 nM | COc1cc2c(cc1-c1cncc(C#N)c1)-c1c(c(C(=O)N(C)C(C)(C)C)nn1-c1cc(Cl)cc(Cl)c1)CC2 [Compound 6-02B, N-tert-butyl-8-(5-cyano-3-pyridyl)-1-(3,5-dichlorophenyl)-7-methoxy-N-methyl-4,5-dihydrobenzo[g]indazole-3-carboxamide] |
| 18.9 nM | COc1cc2c(cc1-c1cncc(C(N)=O)c1)-c1c(c(C(=O)N3CCNC(=O)C34CC4)nn1-c1cc(Cl)cc(Cl)c1)CC2 [Compound 8-89] |
| 5.24 nM | COc1cc2ccc3c(C(=O)N4CCOCC4(C)C)nn(-c4cc(Cl)cc(Cl)c4)c3c2cc1-c1cncc(C(N)=O)c1 [Compound 6-05, 5-[1-(3,5-dichlorophenyl)-3-(3,3-dimethylmorpholine-4-carbonyl)-7-methoxy-benzo[g]indazol-8-yl]pyridine-3-carboxamide] |
| 6.56 nM | COc1cc2c(cc1-c1cncc(C(N)=O)c1)-c1c(c(C(=O)N(C)CC(F)(F)F)nn1-c1cc(Cl)cc(Cl)c1)CC2 [Compound 8-55] |
| 3730 nM | COc1cc2c(cc1-c1cncc(C(N)=O)c1)-c1c(c(C(=O)N3CCN(CCN)C(=O)C3(C)C)nn1-c1cc(Cl)cc(Cl)c1)CC2 [Compound 8-71] |
| 22 nM | COc1cc2c(cc1-c1cncc(C(N)=O)c1)-c1c(c(C(=O)N3CCOCC3(C)C)nn1-c1ccsc1)OC2 [Compound 2-03] |
| 10.3 nM | COc1cc2c(cc1-c1cncc(C#N)c1)-c1c(c(C(=O)N3CCNC(=O)C3(C)C)nn1-c1cc(Cl)cc(Cl)c1)CC2 [Compound 8-26A] |
